Columns and labels:
Plasmodium falciparum [1] = assay: Antimalarial activity against Plasmodium falciparum; format: functional, organism-based
Plasmodium falciparum [2] = assay: microbe, parasite or virus in culture; details: isolate AK249
Description: Antimalarial activity against Plasmodium falciparum isolate AK249

Plasmodium falciparum [3] = assay: microbe, parasite or virus in culture; details: isolate AK183
Description: Antimalarial activity against Plasmodium falciparum isolate AK183

Plasmodium falciparum [4] = assay: microbe, parasite or virus in culture; details: 3D7
Description: Antimalarial activity against Plasmodium falciparum 3D7

Plasmodium falciparum [5] = assay: microbe, parasite or virus in culture; details: isolate AK222
Description: Antimalarial activity against Plasmodium falciparum isolate AK222

Plasmodium falciparum [6] = assay: microbe, parasite or virus in culture; details: isolate 9070
Description: Antimalarial activity against Plasmodium falciparum isolate 9070

Plasmodium falciparum [7] = assay: microbe, parasite or virus in culture; details: isolate AK022D-0
Description: Antimalarial activity against Plasmodium falciparum isolate AK022D-0

Plasmodium falciparum [8] = assay: microbe, parasite or virus in culture; details: isolate AK033 D-0
Description: Antimalarial activity against Plasmodium falciparum isolate AK033 D-0

Plasmodium falciparum [9] = assay: microbe, parasite or virus in culture; details: isolate 8973
Description: Antimalarial activity against Plasmodium falciparum isolate 8973

Plasmodium falciparum [10] = assay: Antimalarial activity against Plasmodium falciparum harboring pfcrt-76 mutant gene with 2 DNNND repeat; format: functional, organism-based
Plasmodium falciparum [11] = assay: microbe, parasite or virus in culture; details: isolate AK158
Description: Antimalarial activity against Plasmodium falciparum isolate AK158

Plasmodium falciparum [12] = assay: microbe, parasite or virus in culture; details: isolate AK167
Description: Antimalarial activity against Plasmodium falciparum isolate AK167

Plasmodium falciparum [13] = assay: microbe, parasite or virus in culture; details: isolate AK150 D-42
Description: Antimalarial activity against Plasmodium falciparum isolate AK150 D-42

Plasmodium falciparum [14] = assay: microbe, parasite or virus in culture
Description: Antimalarial activity against Plasmodium falciparum harboring pfmdr1 gene

Plasmodium falciparum [15] = assay: microbe, parasite or virus in culture; details: isolate AK022 D-28
Description: Antimalarial activity against Plasmodium falciparum isolate AK022 D-28

Plasmodium falciparum [16] = assay: microbe, parasite or virus in culture; details: isolate 8968
Description: Antimalarial activity against Plasmodium falciparum isolate 8968

Plasmodium falciparum [17] = assay: microbe, parasite or virus in culture; remark: listed apart in the source
Description: Antimalarial activity against Plasmodium falciparum harboring 2 DNNND repeat

Plasmodium falciparum [18] = assay: Antimalarial activity against Plasmodium falciparum harboring pfmdr1-86 mutant gene; format: functional, organism-based
Plasmodium falciparum [19] = assay: microbe, parasite or virus in culture; details: isolate AK152 D-56
Description: Antimalarial activity against Plasmodium falciparum isolate AK152 D-56

Plasmodium falciparum [20] = assay: microbe, parasite or virus in culture; details: isolate AK033 D-49
Description: Antimalarial activity against Plasmodium falciparum isolate AK033 D-49

Plasmodium falciparum [21] = assay: microbe, parasite or virus in culture; details: isolate 8966
Description: Antimalarial activity against Plasmodium falciparum isolate 8966

Plasmodium falciparum [22] = assay: microbe, parasite or virus in culture; details: isolate 8885
Description: Antimalarial activity against Plasmodium falciparum isolate 8885

Plasmodium falciparum [23] = assay: microbe, parasite or virus in culture; details: isolate 9067
Description: Antimalarial activity against Plasmodium falciparum isolate 9067

Plasmodium falciparum [24] = assay: microbe, parasite or virus in culture; remark: listed apart in the source
Description: Antimalarial activity against Plasmodium falciparum harboring pfmdr1 gene with 2 DNNND repeat

Plasmodium falciparum [25] = assay: microbe, parasite or virus in culture; details: isolate AK062
Description: Antimalarial activity against Plasmodium falciparum isolate AK062

Plasmodium falciparum [26] = assay: Antimalarial activity against Plasmodium falciparum harboring 1 DNNND repeat; format: functional, organism-based
Plasmodium falciparum [27] = assay: Antimalarial activity against Plasmodium falciparum harboring 3 DNNND repeat; format: functional, organism-based
Plasmodium falciparum [28] = assay: Antimalarial activity against Plasmodium falciparum harboring pfcrt-76 mutant gene; format: functional, organism-based
Plasmodium falciparum [29] = assay: Antimalarial activity against Plasmodium falciparum harboring pfmdr1-86 mutant gene with 2 DNNND repeat; format: functional, organism-based
Plasmodium falciparum [30] = assay: microbe, parasite or virus in culture; details: isolate CDA-1553
Description: Antimalarial activity against Plasmodium falciparum isolate CDA-1553

C[C@H]1[C@@H](O)O[C@@H]2O[C@@]3(C)CC[C@H]4[C@H](C)CC[C@@H]1[C@@]24OO3 [ARTENIMOL]
IC50 (Plasmodium falciparum [1]): 1 nM

CCCCN(CCCC)CC(O)c1cc(Cl)cc2c1-c1ccc(Cl)cc1/C2=C/c1ccc(Cl)cc1 (stereo not drawn) [LUMEFANTRINE]
IC50 (Plasmodium falciparum [1]): 56 nM

Clc1ccc2c(N3CCN(CCCN4CCN(c5ccnc6cc(Cl)ccc56)CC4)CC3)ccnc2c1 [PIPERAQUINE]
IC50 (Plasmodium falciparum [1]): 56 nM

C=C[C@H]1CN2CC[C@H]1C[C@H]2[C@H](O)c1ccnc2ccc(OC)cc12 [QUININE]
IC50 (Plasmodium falciparum [2]): 270 nM | IC50 (Plasmodium falciparum [3]): 73.9 nM | IC50 (Plasmodium falciparum [4]): 27.1 nM | IC50 (Plasmodium falciparum [5]): 210 nM | IC50 (Plasmodium falciparum [6]): 41.5 nM | IC50 (Plasmodium falciparum [7]): 42.4 nM | IC50 (Plasmodium falciparum [8]): 32.8 nM | IC50 (Plasmodium falciparum [9]): 20 nM | IC50 (Plasmodium falciparum [10]): 234 nM | IC50 (Plasmodium falciparum [11]): 234 nM | IC50 (Plasmodium falciparum [12]): 227 nM | IC50 (Plasmodium falciparum [13]): 91.6 nM | IC50 (Plasmodium falciparum [14]): 74 nM | IC50 (Plasmodium falciparum [15]): 22 nM | IC50 (Plasmodium falciparum [16]): 30.6 nM | IC50 (Plasmodium falciparum [17]): 227 nM | IC50 (Plasmodium falciparum [18]): 208 nM | IC50 (Plasmodium falciparum [19]): 208 nM | IC50 (Plasmodium falciparum [20]): 54.1 nM | IC50 (Plasmodium falciparum [21]): 55.8 nM | IC50 (Plasmodium falciparum [22]): 78.2 nM | IC50 (Plasmodium falciparum [23]): 80.1 nM | IC50 (Plasmodium falciparum [24]): 92 nM | IC50 (Plasmodium falciparum [25]): 182 nM | IC90 (Plasmodium falciparum [26]): 157 nM | IC50 (Plasmodium falciparum [27]): 45 nM | IC90 (Plasmodium falciparum [27]): 125 nM | IC50 (Plasmodium falciparum [28]): 164 nM | IC50 (Plasmodium falciparum [29]): 249 nM | IC50 (Plasmodium falciparum [30]): 333 nM

— ChEMBL document CHEMBL1629706 (Antimicrob Agents Chemother, 2010)
